Where two headings read alike, the source gives them in different places. Each block holds one compound with its values, some of them ahead of it.
What was measured:
[1] = system: murine P388 lymphocytic leukaemia; test: P388 lymphocytic leukaemia model, dosing schedule study; type: in vivo
Description: More frequent administration of the compound was poorly tolerated and dictated a lower total dose. […] At doses equivalent to either ¼ or ½ the MTD, % ILS and NCK were reduced.

[2] = system: Colo205 colon carcinoma xenograft; test: Colo205 xenograft tumor model; type: in vivo, nude mice
[3] = system: MV 522 human lung carcinoma xenograft; test: MV 522 xenograft tumor model; type: in vivo, nude mice; conditions: i.p. q4d×3, up to the MTD
[4] = Preclinical toxicology in dogs, 1-hr IV infusion; type: in vivo, dog
Experimental: Doses up to 40 mg/m^2 were tested in a single dose-range finding study and doses of 5, 10 and 20 mg/m^2 were tested in a 3-week (once weekly) toxicology study. Drug-related findings occurred at all dose levels, but severity and incidence were generally dose-proportional. […] In dogs given ≧10 mg/m^2, clinical observations of gastrointestinal (GI) disturbances included vomiting/retching, fecal abnormalities, hypoactivity, anorexia and body weight losses. […] Based on these findings, the highest non-severely toxic dose in the dog is 10 mg/m^2.

[5] = Preclinical toxicology in rats, 1, 6 and 24-hr IV infusion; type: in vivo, rat; conditions: for dose at which mortality occurred: 24-hr infusion
Description: Transient drug-related findings occurred at all doses, but severity and incidence were generally dose proportional and dependent on the duration of infusion. Most consistent findings included hematopoeitic toxicity (depletion in bone marrow and thymus and associated hematologic changes) and enteropathy (necrosis/regeneration of intestinal crypt epithelium and villus atrophy and body weight loss or decrease in body weight gain). Microscopic changes (necrosis, apoptosis and/or cellular degeneration) were also evident in liver, mammary glands, testes and epididymus, and at ≧36 mg/m^2, increased mitotic figures in many tissues. All drug-related toxicities completely reversed 2 weeks after dosing, with the exception of degenerative testicular changes at ≧18 mg/m^2. In the 1 to 6-hr infusion studies, there was no mortality, however based on the severity of hematopoietic and gastrointestinal toxicities, the MTD was 72 mg/m^2. When the infusion was increased to 24-hr, mortality occurred at 18 mg/m^2 after a single dose and at 12 mg/m^2 after repeated weekly dosing.

[6] = system: rat, dog, rabbit and human blood; test: In vitro hemolysis on mixing with blood
Description: Hemolysis was not observed in any of the in vivo studies, nor has it been observed in the ongoing Phase I trial.

In vitro Ames test = type: cell-based
Description: (§1) Positive findings are consistent with the expected pharmacology of Compound A.

mouse lymphoma = test: Mouse lymphoma mutagenicity assay; type: cell-based; conditions: in vitro mouse lymphoma mutagenicity assay
Description: as §1

[7] = In vivo rat micronucleus study; conditions: all doses tested (≧3 mg/m^2 administered daily×2)
Description: as §1

[8] = Dose-escalation Phase I study in patients with solid tumors; type: in vivo
Description: In this study, the ANC generally achieved a nadir at Day 7-8 and had completely recovered by Day 15.

Mouse KSP = Mouse KSP (Mus musculus, UniProt Q6P9P6); test: Kinesin affinity, mouse KSP; type: binding
Mouse KSP, sequence (Q6P9P6 whole entry): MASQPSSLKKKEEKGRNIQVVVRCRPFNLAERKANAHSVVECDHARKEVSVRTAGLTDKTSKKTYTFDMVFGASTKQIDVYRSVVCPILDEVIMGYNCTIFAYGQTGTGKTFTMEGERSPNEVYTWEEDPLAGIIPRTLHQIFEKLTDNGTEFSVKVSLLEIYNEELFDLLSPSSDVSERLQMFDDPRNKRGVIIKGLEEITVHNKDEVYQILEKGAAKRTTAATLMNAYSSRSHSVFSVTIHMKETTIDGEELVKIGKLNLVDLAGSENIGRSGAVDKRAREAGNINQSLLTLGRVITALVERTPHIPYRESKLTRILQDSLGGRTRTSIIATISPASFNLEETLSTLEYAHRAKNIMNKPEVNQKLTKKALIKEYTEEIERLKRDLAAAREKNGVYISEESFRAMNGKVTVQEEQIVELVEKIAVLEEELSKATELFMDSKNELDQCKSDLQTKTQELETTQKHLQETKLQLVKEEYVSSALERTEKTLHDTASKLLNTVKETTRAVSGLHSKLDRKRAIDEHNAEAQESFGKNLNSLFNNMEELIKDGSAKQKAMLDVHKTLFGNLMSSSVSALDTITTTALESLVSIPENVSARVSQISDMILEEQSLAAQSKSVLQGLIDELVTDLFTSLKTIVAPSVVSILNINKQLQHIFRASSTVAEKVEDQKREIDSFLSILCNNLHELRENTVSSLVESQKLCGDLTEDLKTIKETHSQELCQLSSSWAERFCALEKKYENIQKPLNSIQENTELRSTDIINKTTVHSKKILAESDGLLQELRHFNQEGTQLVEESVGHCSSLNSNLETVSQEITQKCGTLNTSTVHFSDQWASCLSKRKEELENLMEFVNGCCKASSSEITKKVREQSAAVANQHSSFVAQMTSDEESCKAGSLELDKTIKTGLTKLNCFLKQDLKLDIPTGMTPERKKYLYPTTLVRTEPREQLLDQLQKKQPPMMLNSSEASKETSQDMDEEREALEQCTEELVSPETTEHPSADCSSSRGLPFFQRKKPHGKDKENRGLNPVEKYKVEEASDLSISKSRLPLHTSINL

Other kinesins = test: Kinesin affinity, other kinesins; type: binding
HT29 = test: Cellular activity, HT29; type: cell-based
SKOV3 = test: Cellular activity, SKOV3; type: cell-based
Colo205 = test: Cellular activity, Colo205; type: cell-based
MV522 = test: Cellular activity, MV522; type: cell-based
MX1 = test: Cellular activity, MX1; type: cell-based
P388 (murine) = test: Cellular activity, P388; type: cell-based
[9] = system: broad spectrum of tumor cell lines; test: Cytotoxic activity in tumor cell lines; type: cell-based
HT29 tumor xenografts = test: HT29 tumor xenograft efficacy, Compound A and bortezomib alone and combined; type: in vivo, female athymic nu/nu mice; conditions: for TGD, second arm, single agents: 1.5 mg/kg bortezomib and 10 mg/kg Compound A as printed; for mean tumor growth delay (TGD): 1.5 mg/kg bortezomib, 10 mg/kg Compound A, q4d×3; for mean time to endpoint (TTE), tumor volume=1000 mm^3: single agents (at MTD for bortezomib and Compound A)
Experimental: (§2) Finally, tolerability and efficacy studies were conducted in which HT29 tumors maintained by serial passage were implanted subcutaneously in 9-10 weeks old female athymic no/nu mice (Harlan) Twenty-one (21) days post-implantation, when tumors reached 63-196 mm^3, mice were randomized into cohorts of […] with mean tumor volumes ˜100 mm^3. […] Drugs were delivered on the indicated schedules at 10 ml/kg by i.p. injection, except paclitaxel, which was administered by intravenous injection. Tumors were measured twice weekly and mice euthanized when tumor reached 1000 mm^3 or at day 59. Mice were weighed twice weekly. Acceptable toxicity was defined as body weight loss of <20% and ≦1 treatment-related death among ten treated animals. Toxicity exceeding these levels was considered above MTD.
(§3) Anti-tumor activity of sequenced (24 hour offset, q4d×3) and simultaneous administration was explored in HT29 tumor xenografts.
as §3

[10] = Tolerability (MTD) of Compound A and bortezomib in nude mice; type: in vivo
Experimental: as §2

[11] = system: HT 29 chemo-refractory colon carcinoma xenograft
[12] = system: MX-1 mammary carcinoma xenograft; conditions: i.p. q4d×3
[13] = target: human P-glycoprotein (Pgp) (Homo sapiens, UniProt P08183); conditions: MDCKII-MDR1 cells
human P-glycoprotein (Pgp), sequence (P08183 whole entry): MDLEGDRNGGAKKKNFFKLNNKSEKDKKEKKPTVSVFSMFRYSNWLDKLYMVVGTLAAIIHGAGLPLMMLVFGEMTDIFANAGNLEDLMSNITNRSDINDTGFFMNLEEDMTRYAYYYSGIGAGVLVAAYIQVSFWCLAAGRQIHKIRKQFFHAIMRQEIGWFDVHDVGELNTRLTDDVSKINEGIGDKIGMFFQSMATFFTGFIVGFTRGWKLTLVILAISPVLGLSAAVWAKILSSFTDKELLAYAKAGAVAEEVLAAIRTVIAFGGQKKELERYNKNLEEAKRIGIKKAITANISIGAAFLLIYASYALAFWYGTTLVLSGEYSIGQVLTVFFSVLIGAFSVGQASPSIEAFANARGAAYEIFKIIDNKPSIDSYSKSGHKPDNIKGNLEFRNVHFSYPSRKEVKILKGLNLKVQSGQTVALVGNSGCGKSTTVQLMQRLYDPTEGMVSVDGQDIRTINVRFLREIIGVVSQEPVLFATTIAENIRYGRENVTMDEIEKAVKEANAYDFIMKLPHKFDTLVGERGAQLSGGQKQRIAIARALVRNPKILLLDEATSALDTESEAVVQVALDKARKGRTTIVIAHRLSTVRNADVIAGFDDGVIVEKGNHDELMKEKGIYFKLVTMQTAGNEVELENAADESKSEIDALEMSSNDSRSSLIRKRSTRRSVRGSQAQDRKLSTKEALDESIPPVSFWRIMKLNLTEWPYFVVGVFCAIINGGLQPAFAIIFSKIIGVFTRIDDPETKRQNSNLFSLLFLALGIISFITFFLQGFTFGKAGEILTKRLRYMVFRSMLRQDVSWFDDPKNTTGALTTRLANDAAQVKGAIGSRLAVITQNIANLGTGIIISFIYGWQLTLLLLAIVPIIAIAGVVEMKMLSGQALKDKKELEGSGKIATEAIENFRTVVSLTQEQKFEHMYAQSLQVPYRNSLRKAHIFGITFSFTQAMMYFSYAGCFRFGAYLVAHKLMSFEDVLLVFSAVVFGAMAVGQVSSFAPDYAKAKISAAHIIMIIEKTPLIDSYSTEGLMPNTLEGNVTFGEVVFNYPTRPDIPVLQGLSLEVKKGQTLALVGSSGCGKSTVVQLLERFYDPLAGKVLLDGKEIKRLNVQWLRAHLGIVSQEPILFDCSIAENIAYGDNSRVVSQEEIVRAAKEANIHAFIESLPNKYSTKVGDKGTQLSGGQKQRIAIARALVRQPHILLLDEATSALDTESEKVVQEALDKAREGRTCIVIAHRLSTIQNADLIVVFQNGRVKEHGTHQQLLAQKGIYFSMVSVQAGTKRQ

[14] = system: MCF-7 human tumor xenograft
[15] = system: SK-MES human tumor xenograft
[16] = system: H69 human tumor xenograft
[17] = system: OVCAR-3 human tumor xenograft
[18] = system: MDA-MB-231 human tumor xenograft
[19] = system: A2780 human tumor xenograft
[20] = target: P-glycoprotein (Pgp, MDR1) (Homo sapiens, UniProt P08183); test: in vitro
P-glycoprotein (Pgp, MDR1), sequence (P08183 whole entry): as above

[21] = i.p., q4d×3 schedule, at the MTD
[22] = rat, 1 to 6-hr infusion studies
[23] = Q21 days, patients with solid tumors

Compound: Cc1ccc(C(=O)N(CCCN)[C@@H](c2oc3cc(Cl)ccc3c(=O)c2Cc2ccccc2)C(C)C)cc1 [Compound A, N-(3-Aminopropyl)-N—[(R)-1-3-benzyl-7-chloro-4-oxo-4H-chromen-2-yl-2-methyl-propyl]-4-methyl-benzamide]
- % ILS and NCK ([1]; doses equivalent to ¼ or ½ the MTD): reduced
- mean (±SEM) % increase in lifespan (ILS) [1, 21]: 156±10%
- net cell kill (NCK) [1, 21]: 2.9±0.5 logs
- single agent activity against advanced xenograft ([2]; Colo205): complete regressions
- tumor regression ([2]; i.p. q4d×3, at the MTD): complete tumor regressions
- tumor regression ([2]; i.p. q4d×3, doses as low as 25% of the MTD, majority of animals): Partial tumor regressions
- tumor response [3]: refractory
- animals euthanized in moribund condition ([4]; Day 4 after a single 1-hr IV infusion of 20 mg/m^2): One of 10 dogs
- dose with clinical observations of gastrointestinal (GI) disturbances ([4]; dog, 1-hr IV infusion): ≥ 10 mg/m^2
- highest non-severely toxic dose ([4]; dog, 1-hr IV infusion, once weekly for 3 weeks): 10 mg/m^2
- dose with testicular germinal epithelial abnormalities ([4]; male dogs): 20 mg/m^2
- dose with degenerative testicular changes not reversed 2 weeks after dosing ([5]; rat IV infusion): ≥ 18 mg/m^2
- dose with increased mitotic figures in many tissues ([5]; rat IV infusion): ≥ 36 mg/m^2
- MTD [5, 22]: 72 mg/m^2
- mortality [5, 22]: no mortality
- dose at which mortality occurred ([5]; rat, after a single dose): 18 mg/m^2
- dose at which mortality occurred ([5]; rat, after repeated weekly dosing): 12 mg/m^2
- hemolysis ([6]; at 0.3 mg/mL): no hemolysis was observed
- hemolytic concentration ([6]; mixed with rat, dog, rabbit and human blood): ≥ 0.6 mg/mL
- genotoxic activity (In vitro Ames test): did not show evidence of genotoxic activity
- genotoxic activity (mouse lymphoma): did not show evidence of genotoxic activity
- micronucleus result [7]: positive results as an aneugen
- patients with dose-limiting toxicity (Grade 3 hypophosphatemia, not thought to be drug-related) ([8]; 4 mg/m^2): 1 of the first 6 patients
- day of ANC nadir ([8]; Phase I, Q21 days): 7 to 8 days
- day of ANC recovery ([8]; Phase I, Q21 days): ≤ 15 days
- neurotoxicity, mucositis, thrombocytopenia, alopecia, and nausea vomiting requiring pre-medication ([8]; Phase I, one hour infusion every 21 days): have not been observed
- most commonly occurring dose-limiting toxicity [8, 23]: Prolonged (≧5 days), reversible neutropenia
- presumptive maximum tolerated dose (MTD) [8, 23]: 4 mg/m^2
- dose eliciting Grade 4 neutropenia lasting ≧5 days ([8]; single one hour infusion every 21 days): ≥ 5 mg/m^2
- Ki (Mouse KSP): 0.12 nM
- Ki (Other kinesins): > 70000 nM
- IC50 (HT29): 1.9 nM
- IC50 (SKOV3): 0.2 nM
- IC50 (Colo205): 0.07 nM
- IC50 (MV522): 1.7 nM
- IC50 (MX1): 0.06 nM
- IC50 (P388 (murine)): 14.4 nM
- cytotoxic activity [9]: less than 2 nM
- TGD, second arm, single agents (HT29 tumor xenografts): 12 days
- mean tumor growth delay (TGD) (HT29 tumor xenografts): 24 days
- mean time to endpoint (TTE), tumor volume=1000 mm^3 (HT29 tumor xenografts): did not differ significantly from untreated control animals
- single agent MTD (q4d×3) ([10]; i.p.): about 10 mg/kg
- single agent activity against advanced xenograft ([11]; HT-29): tumor growth delay
- tumor growth delay (T-C1000) ([11]; i.p. q4d×3, time differential to tumor volume 1000 mm^3): 25 days
- tumor regressions [12]: did not induce any tumor regressions
- tumor growth delay (T-C1000) ([12]; time differential to tumor volume 1000 mm^3): 10 days
- Pgp substrate [13]: is a Pgp substrate
- average P7.4 [13]: 25 nm/s
- passive membrane permeability [13]: < 50 nm/s
- single agent activity against advanced xenograft [14]: complete and partial regressions
- single agent activity against advanced xenograft [15]: complete and partial regressions
- single agent activity against advanced xenograft [16]: complete and partial regressions
- single agent activity against advanced xenograft [17]: complete and partial regressions
- single agent activity against advanced xenograft [18]: tumor growth delay
- single agent activity against advanced xenograft [19]: tumor growth delay

- activity at 2 μM [20]: ~30%
Compound: COc1cc2c(cc1OC)CN(CCc1ccc(NC(=O)c3cccc4c(=O)c5cccc(OC)c5[nH]c34)cc1)CC2 [GF120918A]

Compound: CC(C)C[C@H](NC(=O)[C@H](Cc1ccccc1)NC(=O)c1cnccn1)B(O)O [bortezomib]
- TGD, second arm, single agents (HT29 tumor xenografts): 9 days
- mean tumor growth delay (TGD) (HT29 tumor xenografts): 9 days
- mean time to endpoint (TTE), tumor volume=1000 mm^3 (HT29 tumor xenografts): did not differ significantly from untreated control animals
- MTD ([10]; female, athymic nu/nu (nude), mouse, in vivo, ip, read-out: single agent MTD (q4d×3)): ~1.5 mg/kg

Compound: Cc1ccc(C(=O)N(CCCN)[C@@H](c2nc3cc(Cl)ccc3c(=O)n2Cc2ccccc2)C(C)C)cc1 [ispinesib, reference compound]
- Ki (Mouse KSP): 0.76 nM
- Ki (Other kinesins): > 70000 nM
- IC50 (HT29; Homo sapiens, HT-29): 1.2 nM
- IC50 (SKOV3; Homo sapiens, SK-OV-3): 1 nM
- IC50 (Colo205; Homo sapiens, COLO 205): 0.18 nM
- IC50 (MV522; MV522): 9.7 nM
- IC50 (MX1; Homo sapiens, MX1): 2.8 nM
- IC50 (P388 (murine); Mus musculus, P388): 19.7 nM

Compound: CC(=O)O[C@H]1C(=O)[C@@]2(C)[C@H]([C@H](OC(=O)c3ccccc3)[C@]3(O)C[C@H](OC(=O)[C@H](O)[C@@H](NC(=O)c4ccccc4)c4ccccc4)C(C)=C1C3(C)C)[C@]1(OC(C)=O)CO[C@@H]1C[C@@H]2O [paclitaxel]
- mean time to endpoint (TTE), tumor volume=1000 mm^3 (HT29 tumor xenografts): 59 days

Reference: US20090221488A1, “Certain Compositions and Methods of Treatment” (priority 2005, published 2009)
